Data as given in ChEMBL document CHEMBL1629609, “Phenotypic and enzymatic comparative analysis of the novel KPC variant KPC-5 and its evolutionary variants, KPC-2 and KPC-4” (Antimicrob Agents Chemother, 2009).
≈ marks a conversion by molar mass, not a printed value.

How the values were obtained:
[1] = system: Enterobacter cancerogenus; experiment: Antibacterial activity against Enterobacter cancerogenus E624 harboring beta-lactamase KPC-4 by agar dilution method; type: functional
[2] = system: Escherichia coli; experiment: Antibacterial activity against Escherichia coli TOP10 by agar dilution method; type: functional
[3] = system: Escherichia coli; experiment: Antibacterial activity against Escherichia coli TOP10 harboring beta-lactamase KPC-2 by agar dilution method; type: functional
[4] = system: Escherichia coli; experiment: Antibacterial activity against Escherichia coli TOP10 harboring beta-lactamase KPC-4 by agar dilution method; type: functional
[5] = system: Escherichia coli; experiment: Antibacterial activity against Escherichia coli TOP10 harboring beta-lactamase KPC-5 by agar dilution method; type: functional
[6] = system: Escherichia coli; experiment: Metabolic stability in Escherichia coli TOP10 harboring beta-lactamase KPC-2 assessed as hydrolysis rate per mg of extracts at 100 uM after 5 mins by spectrophotometric analysis in presence of clavulanic acid; type: ADME, organism-based; conditions: in vivo
[7] = system: Escherichia coli; experiment: Metabolic stability in Escherichia coli TOP10 harboring beta-lactamase KPC-2 assessed as hydrolysis rate per mg of extracts at 100 uM after 5 mins by spectrophotometric analysis; type: ADME, organism-based; conditions: in vivo
[8] = system: Escherichia coli; experiment: Metabolic stability in Escherichia coli TOP10 harboring beta-lactamase KPC-4 assessed as hydrolysis rate per mg of extracts at 100 uM after 5 mins by spectrophotometric analysis; type: ADME, organism-based; conditions: in vivo
[9] = system: Escherichia coli; experiment: Metabolic stability in Escherichia coli TOP10 harboring beta-lactamase KPC-4 assessed as hydrolysis rate per mg of extracts at 100 uM after 5 mins by spectrophotometric analysis in presence of clavulanic acid; type: ADME, organism-based; conditions: in vivo
[10] = system: Escherichia coli; experiment: Metabolic stability in Escherichia coli TOP10 harboring beta-lactamase KPC-5 assessed as hydrolysis rate per mg of extracts at 100 uM after 5 mins by spectrophotometric analysis; type: ADME, organism-based; conditions: in vivo
[11] = system: Escherichia coli; experiment: Metabolic stability in Escherichia coli TOP10 harboring beta-lactamase KPC-5 assessed as hydrolysis rate per mg of extracts at 100 uM after 5 mins by spectrophotometric analysis in presence of clavulanic acid; type: ADME, organism-based; conditions: in vivo
[12] = system: Pseudomonas aeruginosa; experiment: Antibacterial activity against Pseudomonas aeruginosa PR100 harboring beta-lactamase KPC-2 by agar dilution method; type: functional
[13] = system: Pseudomonas aeruginosa; experiment: Antibacterial activity against Pseudomonas aeruginosa PR280 harboring beta-lactamase KPC-5 by agar dilution method; type: functional
[14] = system: Escherichia coli; experiment: Antibacterial activity against Escherichia coli TOP10 by agar dilution method in presence of clavulanic acid
[15] = system: Escherichia coli; experiment: Antibacterial activity against Escherichia coli TOP10 harboring beta-lactamase KPC-2 by agar dilution method in presence of clavulanic acid; type: functional
[16] = system: Escherichia coli; experiment: Antibacterial activity against Escherichia coli TOP10 harboring beta-lactamase KPC-4 by agar dilution method in presence of clavulanic acid; type: functional
[17] = system: Escherichia coli; experiment: Antibacterial activity against Escherichia coli TOP10 harboring beta-lactamase KPC-5 by agar dilution method in presence of clavulanic acid
[18] = system: Pseudomonas aeruginosa; experiment: Antibacterial activity against Pseudomonas aeruginosa PR100 harboring beta-lactamase KPC-2 by agar dilution method in presence of Tazobactam; type: functional
[19] = system: Enterobacter cancerogenus; experiment: Antibacterial activity against Enterobacter cancerogenus E624 harboring beta-lactamase KPC-4 by agar dilution method in presence of Tazobactam; type: functional
[20] = system: Pseudomonas aeruginosa; experiment: Antibacterial activity against Pseudomonas aeruginosa PR280 harboring beta-lactamase KPC-5 by agar dilution method in presence of Tazobactam; type: functional
[21] = system: Escherichia coli; experiment: Antibacterial activity against Escherichia coli TOP10 by agar dilution method in presence of Tazobactam; type: functional
[22] = system: Escherichia coli; experiment: Antibacterial activity against Escherichia coli TOP10 harboring beta-lactamase KPC-2 by agar dilution method in presence of Tazobactam; type: functional
[23] = system: Escherichia coli; experiment: Antibacterial activity against Escherichia coli TOP10 harboring beta-lactamase KPC-4 by agar dilution method in presence of Tazobactam; type: functional
[24] = system: Escherichia coli; experiment: Antibacterial activity against Escherichia coli TOP10 harboring beta-lactamase KPC-5 by agar dilution method in presence of Tazobactam; type: functional
[25] = system: Escherichia coli; experiment: Ratio of MIC for Escherichia coli TOP10 harboring beta-lactamase KPC-2 to MIC for Escherichia coli TOP10 harboring beta-lactamase KPC-4; type: functional
[26] = system: Escherichia coli; experiment: Ratio of MIC for Escherichia coli TOP10 harboring beta-lactamase KPC-2 to MIC for Escherichia coli TOP10 harboring beta-lactamase KPC-5; type: functional
[27] = system: Escherichia coli; experiment: Metabolic stability in Escherichia coli TOP10 harboring beta-lactamase KPC-2 assessed as hydrolysis rate per mg of extracts at 50 uM after 5 mins by spectrophotometric analysis; type: ADME, organism-based; conditions: in vivo
[28] = system: Escherichia coli; experiment: Metabolic stability in Escherichia coli TOP10 harboring beta-lactamase KPC-4 assessed as hydrolysis rate per mg of extracts at 50 uM after 5 mins by spectrophotometric analysis; type: ADME, organism-based; conditions: in vivo
[29] = system: Escherichia coli; experiment: Metabolic stability in Escherichia coli TOP10 harboring beta-lactamase KPC-5 assessed as hydrolysis rate per mg of extracts at 50 uM after 5 mins by spectrophotometric analysis; type: ADME, organism-based; conditions: in vivo

Row | SMILES | MIC [1] [µg/mL] | MIC [2] [µg/mL] | MIC [3] [µg/mL] | MIC [4] [µg/mL] | MIC [5] [µg/mL] | Stability [7] [nmol/min] | Stability [8] [nmol/min] | Stability [10] [nmol/min] | further results
1 | CO/N=C(\C(=O)N[C@@H]1C(=O)N2C(C(=O)O)=C(COC(C)=O)CS[C@H]12)c1csc(N)n1 [CEFOTAXIME] | > 64 | < 0.06 | 64 (≈ 141 µM) | 64 (≈ 141 µM) | 64 (≈ 141 µM) | 1310 | 172 | 368 | Stability [6]: 487 nmol/min; Stability [9]: 20 nmol/min; Stability [11]: 48 nmol/min
2 | CC(=O)OCC1=C(C(=O)O)N2C(=O)[C@@H](NC(=O)Cc3cccs3)[C@H]2SC1 [CEPHALOTHIN] |  |  |  |  |  | 65 | 53 | 50 | Stability [6]: 25 nmol/min; Stability [9]: 6 nmol/min; Stability [11]: 7 nmol/min
3 | CO/N=C(\C(=O)N[C@@H]1C(=O)N2C(C(=O)[O-])=C(C[N+]3(C)CCCC3)CS[C@H]12)c1csc(N)n1 | 64 (≈ 133 µM) | < 0.06 | 16 (≈ 33.3 µM) | 8 (≈ 16.6 µM) |  |  |  |  | 
4 | C[C@@H](O)[C@H]1C(=O)N2C(C(=O)O)=C(SCCN=CN)C[C@H]12 [IMIPENEM ANHYDROUS] | > 32 | 0.12 (≈ 0.401 µM) | 16 (≈ 53.4 µM) | 2 (≈ 6.68 µM) | 4 (≈ 13.4 µM) | 412 | 69 | 116 | MIC [12]: > 64 µg/mL; MIC [13]: > 64 µg/mL; MIC [14]: 0.12 µg/mL; MIC [15]: 4 µg/mL; MIC [16]: < 0.06 µg/mL; MIC [17]: 0.12 µg/mL
5 | CCN1CCN(C(=O)N[C@@H](C(=O)N[C@@H]2C(=O)N3[C@@H]2SC(C)(C)[C@@H]3C(=O)O)c2ccccc2)C(=O)C1=O [PIPERACILLIN] |  |  |  |  |  |  |  |  | MIC [18]: > 256 µg/mL; MIC [19]: > 64 µg/mL; MIC [20]: 128 µg/mL; MIC [21]: 1 µg/mL; MIC [22]: > 256 µg/mL; MIC [23]: 128 µg/mL; MIC [24]: > 256 µg/mL
6 | CO[C@@]1(NC(=O)Cc2cccs2)C(=O)N2C(C(=O)O)=C(COC(N)=O)CS[C@@H]21 [CEFOXITIN] | > 64 | 4 (≈ 9.36 µM) | 32 (≈ 74.9 µM) | 8 (≈ 18.7 µM) | 16 (≈ 37.4 µM) |  |  |  | Ratio [25]: 4; Ratio [26]: 2
7 | C[C@@H](O)[C@H]1C(=O)N2C(C(=O)O)=C(S[C@@H]3CN[C@H](C(=O)N(C)C)C3)[C@H](C)[C@H]12 [MEROPENEM] | > 32 | < 0.06 | 8 (≈ 20.9 µM) | 1 (≈ 2.61 µM) |  |  |  |  | 
8 | C[C@H]1[C@H](NC(=O)/C(=N\OC(C)(C)C(=O)O)c2csc(N)n2)C(=O)N1S(=O)(=O)O [AZTREONAM] | > 64 | < 0.12 | > 128 | > 128 | > 128 |  |  |  | 
9 | C[C@@H](O)[C@H]1C(=O)N2C(C(=O)O)=C(S[C@@H]3CN[C@H](C(=O)Nc4cccc(C(=O)O)c4)C3)[C@H](C)[C@H]12 | > 16 | < 0.06 | 16 (≈ 33.6 µM) | 2 (≈ 4.21 µM) | 8 (≈ 16.8 µM) |  |  |  | 
10 | CC(C)(O/N=C(\C(=O)N[C@@H]1C(=O)N2C(C(=O)[O-])=C(C[n+]3ccccc3)CS[C@H]12)c1csc(N)n1)C(=O)O [CEFTAZIDIME] | > 64 | 0.12 (≈ 0.22 µM) | 32 (≈ 58.5 µM) | > 128 | 128 (≈ 234 µM) |  |  |  | MIC [12]: 64 µg/mL (≈ 117 µM); MIC [13]: 128 µg/mL (≈ 234 µM); Ratio [25]: 8; Stability [27]: 3 nmol/min; Stability [28]: 7 nmol/min; Stability [29]: 6 nmol/min
